Measured values published in patent US9278962B2 (Cytokinetics, Inc., priority 2011, dated 2016).
Each block holds one compound with its values, some of them ahead of it.

Test system: rabbit skeletal myofibrils (approximately 90% fast fibers)
Experiment: Activation of fast skeletal myofibrils (PUMA coupled-enzyme ATPase assay, AC1.4)
Format: biochemical
Settings: concentration at which the compound increased enzymatic activity by 40%, calcium at pCa25

SMILES: CC(C)(CNc1nc(C(N)=O)ns1)c1ccc(F)cc1 [5-{[2-(4-Fluorophenyl)-2-methylpropyl]amino}-1,2,4-thiadiazole-3-carboxamide]
Mean AC1.4 (Table 2): C (C=10-20 uM)

SMILES: Fc1cccnc1C1(CNc2nc3ccc(Cl)cc3s2)CCC1 [6-chloro-N-((1-(3-fluoropyridin-2-yl)cyclobutyl)methyl)benzo[d] thiazol-2-amine]
Mean AC1.4 (Table 4): B (B=1-10 uM)

SMILES: COc1cccnc1C1(CNc2nc3ccc(Cl)cc3s2)CCC1 [6-chloro-N-((1-(3-methoxypyridin-2-yl)cyclobutyl)methyl)benzo[d] thiazol-2-amine]
Mean AC1.4 (Table 4): B (B=1-10 uM)

SMILES: Fc1ccc(C2(CNc3nc4ccc(Cl)cc4s3)CCC2)cc1 [6-chloro-N-((1-(4-fluorophenyl)cyclobutyl)methyl) benzo[d]thiazol-2-amine]
Mean AC1.4 (Table 4): A (A=<1 uM)

SMILES: COc1ccc(C2(CNc3nc4ccc(Cl)cc4s3)CCC2)nc1 [6-chloro-N-((1-(5-methoxypyridin-2-yl)cyclobutyl)methyl)benzo[d] thiazol-2-amine]
Mean AC1.4 (Table 4): B (B=1-10 uM)

SMILES: Clc1ccc2nc(NCC3(c4ccccn4)CCC3)sc2c1 [6-chloro-N-((1-(pyridin-2-yl)cyclobutyl)methyl)benzo[d] thiazol-2-amine]
Mean AC1.4 (Table 4): B (B=1-10 uM)

SMILES: COc1cccc(Cc2nsc(NCCc3ccc4c(c3)OCO4)n2)c1 [(2-(2H-benzo[d]1,3-dioxolan-5-yl)ethyl){3-[(3-methoxyphenyl)methyl](1,2,4-thiadiazol-5-yl)}amine]
Mean AC1.4 (Table 2): D (D=>20 uM)

SMILES: COc1cccc(Cc2nsc(Nc3ccc(Cl)c(Cl)c3)n2)c1 [(3,4-dichlorophenyl){3-[(3-methoxyphenyl)methyl](1,2,4-thiadiazol-5-yl)}amine]
Mean AC1.4 (Table 2): D (D=>20 uM)

SMILES: Fc1ccc(Cc2nsc(Nc3ccc(Cl)c(Cl)c3)n2)cc1 [(3,4-dichlorophenyl){3-[(4-fluorophenyl)methyl](1,2,4-thiadiazol-5-yl)}amine]
Mean AC1.4 (Table 2): D (D=>20 uM)

SMILES: CCc1nsc(NCC(C)(C)c2ccc(F)cc2)n1 [(3-ethyl(1,2,4-thiadiazol-5-yl))[2-(4-fluorophenyl)-2-methylpropyl]amine]
Mean AC1.4 (Table 2): B (B=1-10 uM)

SMILES: CC(C)(O)/C=C/c1nsc(NCC(C)(C)c2ccc(F)cc2)n1 [(3E)-4-(5-{[2-(4-fluorophenyl)-2-methylpropyl]amino}(1,2,4-thiadiazol-3-yl))-2-methylbut-3-en-2-ol]
Mean AC1.4 (Table 2): B (B=1-10 uM)

SMILES: CC(C)(CNc1nc(CCN2CC[C@@H](O)C2)ns1)c1ccc(F)cc1 [(3R)-1-[2-(5-{[2-(4-fluorophenyl)-2-methylpropyl]amino}(1,2,4-thiadiazol-3-yl))ethyl]pyrrolidin-3-ol]
Mean AC1.4 (Table 2): C (C=10-20 uM)

SMILES: CC(C)(CNc1nc(CN2CC[C@H](O)C2)ns1)c1ccc(F)cc1 [(3S)-1-[(5-{[2-(4-fluorophenyl)-2-methylpropyl]amino}(1,2,4-thiadiazol-3-yl))methyl]pyrrolidin-3-ol]
Mean AC1.4 (Table 2): D (D=>20 uM)

SMILES: Fc1ccc(Cc2nsc(Nc3ccc(Cl)cc3)n2)cc1 [(4-chlorophenyl){3-[(4-fluorophenyl)methyl](1,2,4-thiadiazol-5-yl)}amine]
Mean AC1.4 (Table 2): D (D=>20 uM)

SMILES: COc1ccc2nc(NCC(C)(C)c3ccc(F)cc3)sc2c1 [N-(2-(4-fluorophenyl)-2-methylpropyl)-6-methoxybenzo[d]thiazol-2-amine]
Mean AC1.4 (Table 4): A (A=<1 uM)

SMILES: CC(C)(CNc1nc2ccccc2s1)c1ccc(F)cc1 [N-(2-(4-fluorophenyl)-2-methylpropyl)benzo[d]thiazol-2-amine]
Mean AC1.4 (Table 4): B (B=1-10 uM)

SMILES: Fc1cccnc1C1(CNc2cnc(-c3ccccc3)s2)CCC1 [N-((1-(3-fluoropyridin-2-yl)cyclobutyl)methyl)-2-phenylthiazol-5-amine]
Mean AC1.4 (Table 5): D (D=>20 uM)

SMILES: Cc1nc(NCC2(c3ncccc3F)CCC2)sc1-c1ccccc1 [N-((1-(3-fluoropyridin-2-yl)cyclobutyl)methyl)-4-methyl-5-phenylthiazol-2-amine]
Mean AC1.4 (Table 5): A (A=<1 uM)

SMILES: Fc1cccnc1C1(CNc2nc(-c3ccccc3)co2)CCC1 [N-((1-(3-fluoropyridin-2-yl)cyclobutyl)methyl)-4-phenyloxazol-2-amine]
Mean AC1.4 (Table 5): D (D=>20 uM)

SMILES: Cn1cc(-c2nnc(NCC3(c4ncccc4F)CCC3)s2)cn1 [N-((1-(3-fluoropyridin-2-yl)cyclobutyl)methyl)-5-(1-methyl-1H-pyrazol-4-yl)-1,3,4-thiadiazol-2-amine]
Mean AC1.4 (Table 3): D (D=>20 uM)

SMILES: Cn1nccc1-c1nnc(NCC2(c3ncccc3F)CCC2)s1 [N-((1-(3-fluoropyridin-2-yl)cyclobutyl)methyl)-5-(1-methyl-1H-pyrazol-5-yl)-1,3,4-thiadiazol-2-amine]
Mean AC1.4 (Table 3): D (D=>20 uM)

SMILES: Fc1cccnc1C1(CNc2nnc(-c3nccs3)s2)CCC1 [N-((1-(3-fluoropyridin-2-yl)cyclobutyl)methyl)-5-(thiazol-2-yl)-1,3,4-thiadiazol-2-amine]
Mean AC1.4 (Table 3): B (B=1-10 uM)

SMILES: Fc1cccnc1C1(CNc2nnc(-c3cscn3)s2)CCC1 [N-((1-(3-fluoropyridin-2-yl)cyclobutyl)methyl)-5-(thiazol-4-yl)-1,3,4-thiadiazol-2-amine]
Mean AC1.4 (Table 3): B (B=1-10 uM)

SMILES: Fc1cccnc1C1(CNc2nnc(-c3cccs3)s2)CCC1 [N-((1-(3-fluoropyridin-2-yl)cyclobutyl)methyl)-5-(thiophen-2-yl)-1,3,4-thiadiazol-2-amine]
Mean AC1.4 (Table 3): B (B=1-10 uM)

SMILES: Cc1ccc(-c2nnc(NCC3(c4ncccc4F)CCC3)s2)cc1 [N-((1-(3-fluoropyridin-2-yl)cyclobutyl)methyl)-5-p-tolyl-1,3,4-thiadiazol-2-amine]
Mean AC1.4 (Table 3): B (B=1-10 uM)

SMILES: Fc1cccnc1C1(CNc2nsc(-c3ccccc3)n2)CCC1 [N-((1-(3-fluoropyridin-2-yl)cyclobutyl)methyl)-5-phenyl-1,2,4-thiadiazol-3-amine]
Mean AC1.4 (Table 2): D (D=>20 uM)

SMILES: Fc1cccnc1C1(CNc2nnc(-c3ccccc3)o2)CCC1 [N-((1-(3-fluoropyridin-2-yl)cyclobutyl)methyl)-5-phenyl-1,3,4-oxadiazol-2-amine]
Mean AC1.4 (Table 5): D (D=>20 uM)

SMILES: Cn1cc(-c2nnc(NC[C@]3(c4ncccc4F)C[C@H](F)C3)s2)cn1 [N-((3-fluoro-1-(3-fluoropyridin-2-yl)cyclobutyl)methyl)-5-(1-methyl-1H-pyrazol-4-yl)-1,3,4-thiadiazol-2-amine]
Mean AC1.4 (Table 3): D (D=>20 uM)

SMILES: Cn1nccc1-c1nnc(NC[C@]2(c3ncccc3F)C[C@H](F)C2)s1 [N-((3-fluoro-1-(3-fluoropyridin-2-yl)cyclobutyl)methyl)-5-(1-methyl-1H-pyrazol-5-yl)-1,3,4-thiadiazol-2-amine]
Mean AC1.4 (Table 3): D (D=>20 uM)

SMILES: Cc1ccc(F)c(-c2nnc(NC[C@]3(c4ncccc4F)C[C@H](F)C3)s2)c1 [N-((3-fluoro-1-(3-fluoropyridin-2-yl)cyclobutyl)methyl)-5-(2-fluoro-5-methylphenyl)-1,3,4-thiadiazol-2-amine]
Mean AC1.4 (Table 3): A (A=<1 uM)

SMILES: C=Cc1ccc(F)c(-c2nnc(NC[C@]3(c4ncccc4F)C[C@H](F)C3)s2)c1 [N-((3-fluoro-1-(3-fluoropyridin-2-yl)cyclobutyl)methyl)-5-(2-fluoro-5-vinylphenyl)-1,3,4-thiadiazol-2-amine]
Mean AC1.4 (Table 3): A (A=<1 uM)

Continued, values first:

Mean AC1.4 (Table 4): B (B=1-10 uM)
SMILES: CC(C)(CNc1nc2cc(Cl)ccc2s1)c1ccc(F)cc1 [5-chloro-N-(2-(4-fluorophenyl)-2-methylpropyl)benzo[d]thiazol-2-amine]

Mean AC1.4 (Table 3): B (B=1-10 uM)
SMILES: Fc1cccnc1C1(CNc2nnc(C3CCCC3)s2)CCC1 [5-cyclopentyl-N-((1-(3-fluoropyridin-2-yl)cyclobutyl)methyl)-1,3,4-thiadiazol-2-amine]

Mean AC1.4 (Table 4): A (A=<1 uM)
SMILES: CC(C)(CNc1nc2ccc(Cl)cc2s1)c1ccc(F)cc1 [6-chloro-N-(2-(4-fluorophenyl)-2-methylpropyl)benzo[d]thiazol-2-amine]

Mean AC1.4 (Table 4): B (B=1-10 uM)
SMILES: CC(C)(CNc1nc2cccc(Cl)c2s1)c1ccc(F)cc1 [7-chloro-N-(2-(4-fluorophenyl)-2-methylpropyl)benzo[d]thiazol-2-amine]

Mean AC1.4 (Table 2): C (C=10-20 uM)
SMILES: CC(C)(CNc1nc(CCN2CC[C@H](O)C2)ns1)c1ccc(F)cc1 [(3S)-1-[2-(5-{[2-(4-fluorophenyl)-2-methylpropyl]amino}(1,2,4-thiadiazol-3-yl))ethyl]pyrrolidin-3-ol]

Mean AC1.4 (Table 2): D (D=>20 uM)
SMILES: COc1cccc(Cc2nsc(Nc3ccc(Cl)cc3)n2)c1 [(4-chlorophenyl){3-[(3-methoxyphenyl)methyl](1,2,4-thiadiazol-5-yl)}amine]

Mean AC1.4 (Table 5): C (C=10-20 uM)
SMILES: CC(C)(CNc1nc(-c2cccnc2)no1)c1ccc(F)cc1 [N-(2-(4-fluorophenyl)-2-methylpropyl)-3-(pyridin-3-yl)-1,2,4-oxadiazol-5-amine]

Mean AC1.4 (Table 5): D (D=>20 uM)
SMILES: Fc1cccnc1C1(CNc2cnn(-c3ccccc3)c2)CCC1 [N-((1-(3-fluoropyridin-2-yl)cyclobutyl)methyl)-1-phenyl-1H-pyrazol-4-amine]

Mean AC1.4 (Table 5): B (B=1-10 uM)
SMILES: Fc1cccnc1C1(CNc2nc(-c3ccccc3)cs2)CCC1 [N-((1-(3-fluoropyridin-2-yl)cyclobutyl)methyl)-4-phenylthiazol-2-amine]

Mean AC1.4 (Table 3): B (B=1-10 uM)
SMILES: Cc1ccccc1-c1nnc(NCC2(c3ncccc3F)CCC2)s1 [N-((1-(3-fluoropyridin-2-yl)cyclobutyl)methyl)-5-o-tolyl-1,3,4-thiadiazol-2-amine]

Mean AC1.4 (Table 5): D (D=>20 uM)
SMILES: Fc1cccnc1C1(CNc2noc(-c3ccccc3)n2)CCC1 [N-((1-(3-fluoropyridin-2-yl)cyclobutyl)methyl)-5-phenyl-1,2,4-oxadiazol-3-amine]

Mean AC1.4 (Table 3): A (A=<1 uM)
SMILES: Fc1cccnc1C1(CNc2nnc(-c3ccccc3)s2)CCC1 [N-((1-(3-fluoropyridin-2-yl)cyclobutyl)methyl)-5-phenyl-1,3,4-thiadiazol-2-amine]

Mean AC1.4 (Table 5): A (A=<1 uM)
SMILES: Fc1cccnc1C1(CNc2ncc(-c3ccccc3)s2)CCC1 [N-((1-(3-fluoropyridin-2-yl)cyclobutyl)methyl)-5-phenylthiazol-2-amine]

Mean AC1.4 (Table 4): C (C=10-20 uM)
SMILES: Fc1cccnc1C1(CNc2nc3ccccc3s2)CCC1 [N-((1-(3-fluoropyridin-2-yl)cyclobutyl)methyl)benzo[d] thiazol-2-amine]
